Laboratory results as given in ChEMBL document CHEMBL2073745, “Disruption of the mouse mdr1a P-glycoprotein gene leads to a deficiency in the blood-brain barrier and to increased sensitivity to drugs” (Cell, 1994).

Molecular target: ATP-dependent translocase ABCB1 (Mus musculus, UniProt P21447)
Test: TP_TRANSPORTER: increase in plasma concentration in mdr1a(-/-) mouse
Format: functional, organism-based
Settings: in vivo

Sequence of ATP-dependent translocase ABCB1 (P21447 whole entry): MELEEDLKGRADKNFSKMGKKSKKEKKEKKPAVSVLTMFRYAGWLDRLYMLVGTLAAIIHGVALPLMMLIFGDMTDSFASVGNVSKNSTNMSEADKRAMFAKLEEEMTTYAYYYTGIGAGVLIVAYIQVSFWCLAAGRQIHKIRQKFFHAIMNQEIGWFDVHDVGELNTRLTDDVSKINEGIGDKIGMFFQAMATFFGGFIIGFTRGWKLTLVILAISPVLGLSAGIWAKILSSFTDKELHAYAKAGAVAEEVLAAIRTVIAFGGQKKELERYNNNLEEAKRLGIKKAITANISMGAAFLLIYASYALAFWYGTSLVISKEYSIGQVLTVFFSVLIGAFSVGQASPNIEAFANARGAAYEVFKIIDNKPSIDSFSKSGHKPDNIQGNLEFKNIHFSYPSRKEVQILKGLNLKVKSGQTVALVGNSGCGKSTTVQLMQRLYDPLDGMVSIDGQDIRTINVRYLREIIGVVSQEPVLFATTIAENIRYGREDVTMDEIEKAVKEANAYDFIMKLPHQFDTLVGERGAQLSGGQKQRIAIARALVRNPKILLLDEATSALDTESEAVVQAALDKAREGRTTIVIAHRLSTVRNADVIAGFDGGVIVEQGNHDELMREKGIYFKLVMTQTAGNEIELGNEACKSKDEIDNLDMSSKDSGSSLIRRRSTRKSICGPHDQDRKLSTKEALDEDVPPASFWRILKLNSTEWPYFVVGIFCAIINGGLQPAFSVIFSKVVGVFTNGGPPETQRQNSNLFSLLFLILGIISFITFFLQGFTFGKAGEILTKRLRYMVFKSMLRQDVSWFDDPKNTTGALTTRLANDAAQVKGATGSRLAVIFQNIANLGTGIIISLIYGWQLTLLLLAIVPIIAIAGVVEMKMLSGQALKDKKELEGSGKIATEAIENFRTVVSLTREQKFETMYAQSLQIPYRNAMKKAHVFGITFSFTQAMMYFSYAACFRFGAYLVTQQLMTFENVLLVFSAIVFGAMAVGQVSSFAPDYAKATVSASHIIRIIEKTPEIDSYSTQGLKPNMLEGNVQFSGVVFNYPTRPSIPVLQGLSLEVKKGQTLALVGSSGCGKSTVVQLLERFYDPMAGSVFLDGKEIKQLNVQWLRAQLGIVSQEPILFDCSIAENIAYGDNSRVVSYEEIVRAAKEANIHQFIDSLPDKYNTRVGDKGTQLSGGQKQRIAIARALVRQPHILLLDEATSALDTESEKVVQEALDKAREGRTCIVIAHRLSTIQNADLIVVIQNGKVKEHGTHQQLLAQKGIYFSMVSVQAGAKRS

Activity: substrate [+]
Sequence: IVERMECTIN
